Data published in patent US7371746B2, “1,2,4-Thiadiazole compounds and pests controlling composition containing the same” (Sumitomo Chemical Company Limited, priority 2003, dated 2008).

The compounds below were run on Aphis gossypii (cotton aphid) (assay: Test Example 1: spray test on cucumber plants infested with cotton aphid). Conditions: 144 h, 500 ppm active ingredient, spray liquid 20 ml/cup on cucumber plant, sixth day after the application.
Type: in vivo
Experimental: The formulation of each of the present compounds (3), (4), (5), (6), (7), (8), (9), (10), (11), (14), (15a), (15b), (16a), (17a), (17b), (18a), (18b), (19), (20), (21) and (22) according to Formulation Example 5 was diluted with water so that the active ingredient concentration came to 500 ppm to prepare a spray liquid. The seeds of cucumber were planted in a polyethylene cup and it was grown until the first true leaf was developed. On the plant about twenty Aphis gossypii (cotton aphid) are allowed to be parasitic. On the next day, the above spray liquid was applied at a ratio of 20 ml/cup to the cucumber plant. On the sixth day after the application, the number of Aphis gossypii was examined, and the control value was determined by the following formula: Control value (%)={1−(Cb×Tai)/(Cai×Tb)}×100 wherein the variables in the formula have the following meanings: Cb: the number of insects before the treatment in the non-treated area; Cai: the number of insects at the time of observation in the non-treated area; Tb: the number of insects before the treatment in the treated area; and Tai: the number of insects at the time of observation in the treated area.
In the case of `CC#CC(C)Oc1nsc(N2CC(C)CC(C)C2)n1` (stereo not drawn) [present compound (21), 3-(1-methyl-2-butynyloxy)-5-(3,5-dimethylpiperidino)-1,2,4-thiadiazole], the pest or weed control at 500 ppm is reported as no less than 90%.
`CC#CCOc1nsc(N2CCCC(C(F)(F)F)C2)n1` (stereo not drawn) [present compound (22), 3-(2-butynyloxy)-5-(3-trifluoromethylpiperidino)-1,2,4-thiadiazole] was tested, and the pest or weed control at 500 ppm was no less than 90%.
With `CC#CCOc1nsc(N2CCC(C)CC2)n1` [present compound (11), 3-(2-butynyloxy)-5-(4-methylpiperidino)-1,2,4-thiadiazole] the pest or weed control at 500 ppm was no less than 90%.
In the case of `CCC#CCOc1nsc(N2CC(C)OC(C)C2)n1` (stereo not drawn) [present compound (18a), 3-(2-pentynyloxy)-5-(2,6-dimethylmorpholino)-1,2,4-thiadiazole], the pest or weed control at 500 ppm is reported as no less than 90%.
`CC#CCOc1nsc(N2CCCCC2C)n1` (stereo not drawn) [present compound (5), 3-(2-butynyloxy)-5-(2-methylpiperidino)-1,2,4-thiadiazole] showed a pest or weed control at 500 ppm of no less than 90%.
Compound `CC#CCOc1nsc(N2CCCCC2)n1` [present compound (3), 3-(2-butynyloxy)-5-piperidino-1,2,4-thiadiazole] has a pest or weed control at 500 ppm of no less than 90%.
Compound `C#CCOc1nsc(N2CC(C)CC(C)C2)n1` (stereo not drawn) [present compound (20), 3-(2-propynyloxy)-5-(3,5-dimethylpiperidino)-1,2,4-thiadiazole] has a pest or weed control at 500 ppm of no less than 90%.
`CC#CCOc1nsc(N2CCCC(C)C2)n1` (stereo not drawn) [present compound (7), 3-(2-butynyloxy)-5-(3-methylpiperidino)-1,2,4-thiadiazole] showed a pest or weed control at 500 ppm of no less than 90%.
`CC#CCOc1nsc(N2CC(C)CC(C)C2)n1` (stereo not drawn) [present compound (15a), 3-(2-butynyloxy)-5-(3,5-dimethylpiperidino)-1,2,4-thiadiazole] gave a pest or weed control at 500 ppm of no less than 90%.
Compound `CCC#CCOc1nsc(N2CC(C)CC(C)C2)n1` (stereo not drawn) [present compound (16a), 3-(2-pentynyloxy)-5-(3,5-dimethylpiperidino)-1,2,4-thiadiazole] has a pest or weed control at 500 ppm of no less than 90%.
`CCC#CCOc1nsc(N2CCCC(C)C2)n1` (stereo not drawn) [present compound (8), 3-(2-pentynyloxy)-5-(3-methylpiperidino)-1,2,4-thiadiazole] showed a pest or weed control at 500 ppm of no less than 90%.
`CCC#CCOc1nsc(N2CCCCCC2)n1` [present compound (14), 3-(2-pentynyloxy)-5-hexamethyleneimino-1,2,4-thiadiazole] gave a pest or weed control at 500 ppm of no less than 90%.
`CCC#CCOc1nsc(N2CCCCC2)n1` [present compound (4), 3-(2-pentynyloxy)-5-piperidino-1,2,4-thiadiazole] gave a pest or weed control at 500 ppm of no less than 90%.
For `CC#CCOc1nsc(N2CCOCC2)n1` [present compound (9), 3-(2-butynyloxy)-5-morpholino-1,2,4-thiadiazole], the pest or weed control at 500 ppm was no less than 90%.
`CC#CCOc1nsc(N2CC(C)OC(C)C2)n1` (stereo not drawn) [present compound (17a), 3-(2-butynyloxy)-5-(2,6-dimethylmorpholino)-1,2,4-thiadiazole] showed a pest or weed control at 500 ppm of no less than 90%.
`CCC#CCOc1nsc(N2CCOCC2)n1` [present compound (10), 3-(2-pentynyloxy)-5-morpholino-1,2,4-thiadiazole] gave a pest or weed control at 500 ppm of no less than 90%.
Compound `CC#CCOc1nsc(N2CC(CC)CC(CC)C2)n1` (stereo not drawn) [present compound (19), 3-(2-butynyloxy)-5-(3,5-diethylpiperidino)-1,2,4-thiadiazole] has a pest or weed control at 500 ppm of no less than 90%.
`CCC#CCOc1nsc(N2CCCCC2C)n1` (stereo not drawn) [present compound (6), 3-(2-pentynyloxy)-5-(2-methylpiperidino)-1,2,4-thiadiazole] gave a pest or weed control at 500 ppm of no less than 90%.
